Tests used:
[1] = target: high affinity nicotinic receptors; test: Inhibition of L-[3H]nicotine binding to mouse brain membrane preparations; design: species or system Mice (DBA strain); details: mouse brain membranes, 2 hr incubation at 4° C., 10 nM L-[3H]nicotine, Ki calculated from IC50 by method of Cheng et al.
Description: Mice (DBA strain) were maintained on a 12 hour light/dark cycle and were allowed free access to water and food supplied by Wayne Lab Blox, Madison, Wis. Animals used in the present studies were 60 to 90 days of age and weighed 20 to 25 g. Brain membrane preparations were obtained from pooled brain tissue of both males and females.
Mice were killed by cervical dislocation. Brains were removed and placed on an ice-cold platform. […] Protein was determined by the method of Lowry, et al., J. Biol. Chem., Vol. 193, pp. 265-275 (1951), using bovine serum albumin as the standard.
The binding of L-[^3 H]nicotine was measured using a modification of the method of Romano, et al., Science, Vol. 210, pp. 647-650 (1980) as described previously by Marks, et al., Mol. Pharmacol., Vol. 30, pp. 427-436 (1986). The binding of L-[^3 H]nicotine was measured using a 2 hr. incubation at 4° C. […] Nonspecific binding was determined by inclusion of 10 μM nonradioactive nicotine in the incubations. The inhibition of L-[^3 H]nicotine binding by test compounds was determined by including one of eight different concentrations of the test compound in the incubation. […] Inhibition constants (Ki values) were calculated from the IC50 values using the method of Cheng, et al., Biochem. Pharmacol., Vol. 22, pp. 3099-3108 (1973). […]

[2] = tested on: synaptosomes from the striatal area of rat brain; test: [3H]-dopamine release from rat striatal synaptosomes; assay type: biochemical, Sprague-Dawley rats; details: 0.2 ml of a 20 μM solution of ligand, relative to equal concentration of S(-) nicotine
Description: Dopamine release was measured by preparing synaptosomes from the striatal area of rat brain obtained from Sprague-Dawley rats generally according to the procedures set forth by Nagy, et al., J. Neurochem., Vol. 43, pp. 1114-1123 (1984). Striata from 4 rats were homogenized in 2 ml of 0.32M sucrose buffered with 5 mM HEPES (pH 7.5), using a glass-teflon tissue grinder. The homogenate was diluted to 5 ml with additional homogenization solution and centrifuged at 1000×g for 10 min. This procedure was repeated on the new pellet and the resulting supernatant was centrifuged at 12,000×g for 20 min. […] Using this method, 30 to 90 percent of the dopamine was taken up into the synaptosomes, as determined by scintillation counting following filtration through glass fiber filters soaked with 0.5 percent polyethyleneimine. […] After the addition of a 0.2 ml of a 20 μM solution of ligand, the perfusate was collected into scintillation vials at 1 min. intervals and the dopamine released was quantified by scintillation counting. Peaks of radioactivity released above background were summed and the average basal release during that time was subtracted from the total. Release was expressed as a percentage of release obtained with an equal concentration of S(-) nicotine.

Compound: CN1CCCC1c1ccncc1 (centres unmarked) [gamma-nicotine]
- Ki [1]: 1.1 ± 0.1 µM
- Dopamine Release (Percent release relative to S(-) nicotine) [2]: 45%
